Some test systems named below: U251 CNS; ACHN renal; M14 melanoma; SF-268 CNS; MOLT-4 leukemia; COLO 205 colon; SK-OV-3 ovarian; HOP-92 NSCLC; OVCAR-3 ovarian; PC-3 prostate; 786-0 renal.
Experiment in all cases: NCI anticancer screen, dose series, 48 h

Drawing on PubChem BioAssay (NCI), this text covers TGI and GI50 for twelve compounds.

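A five-concentration, 48-hour dose response in 96-well plates underlies each endpoint, interpolated linearly between surrounding concentrations. At the GI50, growth is halved. TGI: concentration producing complete growth inhibition.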 Where a SMILES comes first, the peptide text is derived from it.

Regarding `Cc1ccccc1NC(=O)CC(=O)N1N=C(N2c3ccccc3Sc3ccccc32)CC1c1ccccc1` (stereo unspecified), the TGI in the assay on U251 CNS, in the assay on ACHN renal, in the assay with M14 melanoma, with SF-268 CNS, in the assay with MOLT-4 leukemia and in the assay on COLO 205 colon was over 100 µM each time. Further, the TGI with SK-OV-3 ovarian, in the assay with HOP-92 NSCLC and with OVCAR-3 ovarian was over 100 µM throughout.

For the compound `C/C(N=Nc1nc2ccccc2[nH]1)=C1/C=CC=CN1O`, the TGI in the assay on U251 CNS, with ACHN renal, with M14 melanoma, in the assay on PC-3 prostate, with SF-268 CNS and in the assay on 786-0 renal was over 100 µM throughout. Moreover, the TGI in the assay on MOLT-4 leukemia, with COLO 205 colon, in the assay with SK-OV-3 ovarian, in the assay on HOP-92 NSCLC and in the assay on OVCAR-3 ovarian was over 100 µM throughout.

On to `COC1CC(CC2CCC(C)C(C(C)C(=O)O)O2)OC2(OC(C)(C3CCC(C)(C4OC(C5OC(O)(CO)C(C)CC5C)CC4C)O3)CC2C)C1C` (stereo unspecified), for which the TGI with U251 CNS came to 11.9 µM; in the assay on ACHN renal, 45.1 µM; in the assay with M14 melanoma, 5.82 µM; in the assay on PC-3 prostate it was 49 µM; with SF-268 CNS, 36.5 µM; in the assay with 786-0 renal, 30.5 µM. The TGI was found to be 6.13 µM in the assay on MOLT-4 leukemia; 2.67 µM in the assay on COLO 205 colon; 46.3 µM in the assay with SK-OV-3 ovarian; 16.4 µM in the assay on HOP-92 NSCLC; 14 µM in the assay on OVCAR-3 ovarian.

For `CSCCC(NC(=O)OCc1ccccc1)P(=O)(O)c1ccccc1` (stereo unspecified), the TGI with U251 CNS, with ACHN renal, in the assay on M14 melanoma, with PC-3 prostate, in the assay with MOLT-4 leukemia and with COLO 205 colon was over 100 µM in each case. The TGI with SK-OV-3 ovarian, in the assay with HOP-92 NSCLC and in the assay on OVCAR-3 ovarian was over 100 µM in each case.

As to `CCC(C)C(NC(=O)C1CCCN1C(=O)C(CC(C)C)NC(=O)C(CC(C)C)NC(=O)C(N)CC(C)C)C(=O)NC(C(=O)NCC(=O)NC(CC(N)=O)C(=O)NC(CC(C)C)C(=O)NC(CC(C)C)C(=O)NC(CC(C)C)C(N)=O)C(C)C` (stereo unspecified) (H-LLLPIVGNLLL-NH2; configuration not given here), the TGI with U251 CNS, with ACHN renal, with M14 melanoma, in the assay on PC-3 prostate, in the assay on SF-268 CNS and in the assay with 786-0 renal was over 50 µM throughout. Besides, the TGI with MOLT-4 leukemia, in the assay on COLO 205 colon, in the assay with SK-OV-3 ovarian, with HOP-92 NSCLC and in the assay with OVCAR-3 ovarian was over 50 µM each time.

With `CCCCCOC(=O)c1cc2cc(CCl)ccc2oc1=O`, the TGI turned out to be 34.9 µM in the assay with U251 CNS; 8.42 µM in the assay with ACHN renal; 34.8 µM with M14 melanoma; 15.2 µM in the assay on PC-3 prostate; 41.9 µM in the assay with SF-268 CNS; 18.2 µM in the assay with 786-0 renal. The TGI is over 81.7 µM in the assay with MOLT-4 leukemia; 16.3 µM with COLO 205 colon; 45 µM in the assay on SK-OV-3 ovarian; 7.35 µM with HOP-92 NSCLC; 19.5 µM in the assay with OVCAR-3 ovarian.

`Cc1nc2ncn3c(c-2c1Cc1ccccc1)NC=C(O)N3`: the TGI in the assay with U251 CNS, in the assay with ACHN renal, with M14 melanoma, in the assay on PC-3 prostate, with SF-268 CNS and in the assay on 786-0 renal was over 100 µM throughout. For the same compound, the TGI in the assay on MOLT-4 leukemia, with COLO 205 colon, with SK-OV-3 ovarian and in the assay on OVCAR-3 ovarian was over 100 µM in each case.

Consider `Cc1cnoc1NS(=O)(=O)c1ccc(Nc2nnc(/C=C/c3c(O)ccc4ccccc34)c(=O)n2N)cc1`, for which the TGI with ACHN renal was 55.1 µM; in the assay with M14 melanoma, 75.7 µM; in the assay with SF-268 CNS, over 100 µM; in the assay on 786-0 renal it was 77.1 µM; in the assay on MOLT-4 leukemia, over 100 µM; in the assay on SK-OV-3 ovarian it was over 100 µM. The TGI in the assay with HOP-92 NSCLC is over 100 µM; with OVCAR-3 ovarian it was 60.1 µM.

Regarding `CCCN1C(=O)CSC1=Nc1ccc2cc3ccc(N=C4SCC(=O)N4CCC)cc3nc2c1`, the GI50 in the assay with U251 CNS is 48.2 µM; in the assay with ACHN renal, 29.6 µM; with PC-3 prostate it was 78.1 µM; with SF-268 CNS, 35.5 µM; in the assay on MOLT-4 leukemia it was over 100 µM; with COLO 205 colon it was over 100 µM. Besides, the GI50 in the assay with SK-OV-3 ovarian was 39.4 µM; with HOP-92 NSCLC, 0.0391 µM; with OVCAR-3 ovarian, 22 µM. The TGI is over 100 µM in the assay on U251 CNS; over 100 µM in the assay on ACHN renal; over 100 µM in the assay with PC-3 prostate; over 100 µM in the assay with SF-268 CNS; 0.0603 µM with 786-0 renal; over 100 µM in the assay on MOLT-4 leukemia. For the same compound, the TGI was over 100 µM in the assay with COLO 205 colon, over 100 µM in the assay with SK-OV-3 ovarian, 0.334 µM in the assay on HOP-92 NSCLC and 67.6 µM in the assay with OVCAR-3 ovarian.

In the case of `CC(C)C1OC(=O)/C=C/C=C/C=C/C=C/C=C/CC(O)C(C)C(O)CC(O)CC(O)CC(O)CC(O)CC(O)CC(O)/C=C/C1C` (stereo unspecified), the TGI in the assay on U251 CNS, with ACHN renal, with M14 melanoma, with PC-3 prostate, with SF-268 CNS and with MOLT-4 leukemia was over 100 µM in each case. In addition, the TGI with SK-OV-3 ovarian, in the assay with HOP-92 NSCLC and in the assay on OVCAR-3 ovarian was over 100 µM in each case.

Turning to `COC(=S)OC1CC(n2cnc3c(N)ncnc32)OC1CO[Si](C)(C)C(C)(C)C` (stereo unspecified), the TGI in the assay with U251 CNS is 28.1 µM; in the assay on M14 melanoma, 43.3 µM; in the assay on PC-3 prostate it was 44.1 µM; in the assay with MOLT-4 leukemia, over 100 µM; with COLO 205 colon it was 39.8 µM; with SK-OV-3 ovarian, 60.1 µM. The TGI in the assay with HOP-92 NSCLC is 59.3 µM; with OVCAR-3 ovarian, 31 µM.

For `CC(=O)Oc1ccc(CO)cc1OC(C)=O`, the TGI with U251 CNS, in the assay on ACHN renal, in the assay on M14 melanoma, with SF-268 CNS, in the assay on 786-0 renal and in the assay on MOLT-4 leukemia was over 100 µM each time. Further, the TGI with COLO 205 colon, in the assay on SK-OV-3 ovarian, with HOP-92 NSCLC and in the assay with OVCAR-3 ovarian was over 100 µM each time.
